pIC50: −log10 of the molar value.
Experiments:
Format in all cases: cell-based
GLUT9 = molecular target: T1, GLUT9 (Homo sapiens, UniProt Q9NRM0); assay: [3H]2-DG uptake into LNCaP cells overexpressing GLUT9; conditions: for inhibition at 5 µM: LNCaP cells transfected with GLUT9, 30 min
T1 construct: The full length GLUT1, GLUT4, and GLUT9 ORF cDNA clones were purchased from Addgene; EGFP (from the pEGFP-N2 vector); host or cells: LNCaP
T1 sequence (Q9NRM0 1-540): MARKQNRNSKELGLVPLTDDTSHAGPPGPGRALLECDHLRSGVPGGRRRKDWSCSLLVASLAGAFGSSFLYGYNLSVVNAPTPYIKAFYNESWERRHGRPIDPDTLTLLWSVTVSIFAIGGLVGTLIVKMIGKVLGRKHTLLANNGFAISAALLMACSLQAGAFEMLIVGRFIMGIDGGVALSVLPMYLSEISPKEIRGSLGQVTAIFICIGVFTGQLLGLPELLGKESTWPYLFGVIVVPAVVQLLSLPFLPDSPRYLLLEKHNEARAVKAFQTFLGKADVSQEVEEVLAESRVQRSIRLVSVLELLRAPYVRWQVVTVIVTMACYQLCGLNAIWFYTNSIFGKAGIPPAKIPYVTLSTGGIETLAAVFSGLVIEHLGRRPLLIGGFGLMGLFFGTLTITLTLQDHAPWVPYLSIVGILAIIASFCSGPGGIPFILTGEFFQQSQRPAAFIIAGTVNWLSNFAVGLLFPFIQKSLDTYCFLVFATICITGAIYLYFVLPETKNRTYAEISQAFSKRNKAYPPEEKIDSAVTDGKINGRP
Description: (§1) As information regarding the expression pattern of individual GLUT members in LNCaP cells was lacking, quantitative real time polymerase chain reaction (qRT-PCR) was used to assess the mRNA levels of the hypoxia-responsive GLUT1 and GLUT3, and three other representative GLUT members, including the class I GLUT2 and GLUT4 and the class II GLUT9. Among these five members, LNCaP cells expressed GLUT1 and, to a much lesser extent, GLUT9, while the mRNA levels of GLUTs2-4 were negligible (FIG. 3B). To examine the isoform specificity of these inhibitors, LNCaP cells were ectopically transfected with plasmids encoding GLUT1, GLUT3, GLUT4, or GLUT9 vis-à-vis the pCMV control vector so that the increased glucose uptake in GLUT-transfected cells relative to pCMV control cells was indicative of the activity of the ectopically expressed GLUT protein.
(§2) Glucose Uptake Assay. LNCaP cells were seeded in six-well plates (3×10^5 cells/well) for 24 h. Cells were washed twice with Krebs-Ringer phosphate buffer (126 mM NaCl, 2.5 mM KCl, 25 mM NaHCO3, 1.2 mM NaH2PO4, 1.2 mM MgCl2, 2.5 mM CaCl2, pH 7.4) and were then treated with individual agents in Krebs-Ringer phosphate buffer. After 1.5 h, glucose uptake was initiated by adding 1 mL Krebs-Ringer buffer containing […] [^3H]2-DG (PerkinElmer Life Science) and […] non-radioactive 2-DG and was terminated by washing with cold PBS. The cells were lysed in […] lysis buffer (10 mM Tris-HCl pH 8.0, 0.1% SDS) and aliquots were taken for measurement of radioactivity using a scintillation counter (Beckman LS6500).
(§3) Plasmid Construction, Transient Transfection and Immunoblotting. The full length GLUT1, GLUT4, and GLUT9 ORF cDNA clones were purchased from Addgene (Cambridge, Mass.) and GLUT3 ORF cDNA was purchased from Origene Technologies (Rockville, Md.). GLUT1, GLUT3, and GLUT9 were subcloned into the HindIII/SalI sites and GLUT4 was subcloned into the EcoRI/SalI sites of pEGFP-N2 expression vector (Clontech, Palo Alto, Calif.). […]

BxPC3 cells = assay: MTT cell viability assay, BxPC3; conditions: Homo sapiens, BXPC-3, 72 h, 10% FBS
Experimental: Cell Viability Assay. Cell viability was determined using the 3-(4,5-dimethylthiazol-2-yl)-2,5-diphenyltetrazolium bromide (MTT) assay. Cancer cells were seeded at 5000 cells/well and normal cells were seeded at 8000 cells/well in 96-well plates and incubated in 10% FBS-supplemented medium for 24 h. Cells were then treated with individual agents for 72 h. Drug-containing medium was replaced with medium containing MTT (0.5 mg/mL), followed by incubation at 37° C. for 1 h. After removal of medium, the reduced MTT dye in each well was solubilized in 100 μL of DMSO and absorbance at 570 nm was measured.
Compound 30 was evaluated for antiproliferative activity in panels of different human cancer cells lines, including those of prostate, breast and pancreatic cancers. In all experiments, cells were treated with a range of concentrations of Compound 30 in the presence of 10% fetal bovine serum (FBS). Cell viability was then determined after 72 h of treatment using the 3-(4,5-dimethylthiazol-2-yl)-2,5-diphenyltetrazolium bromide (MTT) assay. […] It is noteworthy that despite this high antiproliferative potency, normal human prostate epithelial cells (PrECs) were resistant to the cytotoxic effect of Compound 30 even at 10 μM.

GLUT4 = molecular target: T2, GLUT4 (Homo sapiens, UniProt P14672); assay: [3H]2-DG uptake into LNCaP cells overexpressing GLUT4; conditions: for inhibition at 5 µM: LNCaP cells transfected with GLUT4, 30 min
T2 construct: The full length GLUT1, GLUT4, and GLUT9 ORF cDNA clones were purchased from Addgene; host or cells: LNCaP
T2 sequence (P14672 1-509): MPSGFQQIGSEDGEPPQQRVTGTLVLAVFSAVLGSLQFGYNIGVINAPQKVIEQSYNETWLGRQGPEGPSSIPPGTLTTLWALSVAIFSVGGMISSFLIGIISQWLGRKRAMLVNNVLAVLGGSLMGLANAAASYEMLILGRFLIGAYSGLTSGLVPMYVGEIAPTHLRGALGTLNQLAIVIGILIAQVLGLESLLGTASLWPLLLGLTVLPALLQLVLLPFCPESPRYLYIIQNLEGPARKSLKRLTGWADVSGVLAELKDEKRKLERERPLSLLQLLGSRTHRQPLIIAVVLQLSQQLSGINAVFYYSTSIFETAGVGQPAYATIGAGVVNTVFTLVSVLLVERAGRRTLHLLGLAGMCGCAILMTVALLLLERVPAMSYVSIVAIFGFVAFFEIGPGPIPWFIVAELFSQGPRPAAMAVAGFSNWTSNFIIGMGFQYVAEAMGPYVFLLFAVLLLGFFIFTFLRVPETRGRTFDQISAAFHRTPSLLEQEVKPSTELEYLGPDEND
Description: as §1, §2, §3

## CC(CN1C(=O)S/C(=C\c2ccc(O)c(C(F)(F)F)c2)C1=O)(CC(F)(F)F)CC(F)(F)F [Compound 30, 5-(4-Hydroxy-3-trifluoromethyl-benzylidene)-3-[4,4,4-trifluoro-2-methyl-2-(2,2,2-trifluoro-ethyl)-butyl]-thiazolidine-2,4-dione]
GLUT9; LNCaP cells overexpressing GLUT9, read-out: IC50 for GLUT9-mediated [3H]2-DG uptake
  pIC50: ≤ 5.30
GLUT9
  inhibition at 5 µM: 34%
BxPC3 cells
  pIC50: ~5.12
GLUT4; LNCaP cells overexpressing GLUT4, read-out: IC50 for GLUT4-mediated [3H]2-DG uptake
  pIC50: ≤ 5.30
GLUT4
  inhibition at 5 µM: 42%

## CCC(CC)CN1C(=O)S/C(=C\c2ccc(O)c(C(F)(F)F)c2)C1=O [Compound 5]
GLUT9
  inhibition at 5 µM: 26%
GLUT4
  inhibition at 5 µM: 32%

From patent publication US9174951B2, “Glucose transporter inhibitors” (The Ohio State University Research Foundation, priority 2012, dated 2015)
